Experiment [1] deals with T1, TEM-1 (Escherichia coli, UniProt P62593).
T1 construct: made in house; host or cells: E. coli
Put plainly: β-lactamase inhibitory activity, determination of IC50 (nitrocefin hydrolysis). Type of experiment: biochemical.

Experiment [2] concerns the target AmpC (P99) (Enterobacter cloacae, UniProt P05364). The description is as above.
Experiment [3] addresses T2, SHV-1 (Klebsiella pneumoniae, UniProt P0AD64).
T2 construct: made in house; host or cells: E. coli
The experiment is described as above. Type of experiment: biochemical.

The target in experiment [4] is T3, OXA-11 (Pseudomonas aeruginosa, UniProt Q06778).
T3 construct: made in house; host or cells: E. coli
The experiment is described as above. Type of experiment: biochemical.

Experiment [5] addresses T4, KPC-2 (Klebsiella pneumoniae, UniProt Q9F663).
T4 construct: made in house; host or cells: E. coli
The experiment is described as above. Format: biochemical. Particulars: class (A); nitrocefin 200 μM, 30 min pre-incubation; read-out: IC50 β-lactamase KPC-2.

In experiment [6] the target is T5, OXA-15 (Pseudomonas aeruginosa, UniProt Q51574).
T5 construct: made in house; host or cells: E. coli
Put plainly: biochemical.

Experiment [7] deals with T6, OXA-48 (Klebsiella pneumoniae, UniProt Q6XEC0).
T6 construct: made in house; host or cells: E. coli
Put plainly: β-lactamase inhibitory activity, determination of IC50 (nitrocefin hydrolysis). Particulars: class (D); nitrocefin 200 μM, 30 min pre-incubation; read-out: IC50 β-lactamase OXA-48. Format: biochemical.

Experiment [8] concerns the target T7, OXA-1 (Escherichia coli, UniProt P13661).
T7 construct: made in house; host or cells: E. coli
The description is as above. Type of experiment: biochemical. To be noted: class (D); nitrocefin 200 μM, 30 min pre-incubation; read-out: IC50 β-lactamase OXA-1.

Experiment [9] concerns the target AmpC P. aeruginosa (Pseudomonas aeruginosa, UniProt P24735). Described as above.
For experiment [10], the system named is K. pneumoniae BAA-1898 (TEM-1, SHV-11, SHV-12, KPC-2). In words: MIC of compounds alone, broth microdilution. To be noted: Klebsiella pneumoniae, BAA1898; strain BAA-1898 (K. pneumoniae); read-out: MIC compounds of the invention alone. Format: cell-based. On the procedure: (§1) Method 2: MIC of Compounds and Synergy with Ceftazidime Against Bacterial Isolates (Table 2 and 3)
(§2) Compounds of the present invention were assessed against genotyped bacterial strains alone or in combination with the β-lactam ceftazidime (CAZ). In the assays, MICs of said compounds, or of ceftazidime at fixed concentrations of said compounds were determined by the broth microdilution method according to the Clinical Laboratory Standards Institute (CLSI-M7-A7). Briefly, compounds alone according to the invention were prepared in DMSO and spotted (2 μL each) on sterile polystyrene plates (Corning, 3788). Compounds and ceftazidime dilutions were prepared in DMSO and spotted (1 μL each) on sterile polystyrene plates (Corning, 3788). Log phase bacterial suspensions were adjusted to a final density of 5×10^5 cfu/mL in cation-adjusted Mueller-Hinton broth (Becton-Dickinson) and added to each well (98 μL). Microplates were incubated for 16-20 h at 35° C. in ambient air. The MIC of the compounds was defined as the lowest concentration of said compounds that prevented bacterial growth as read by visual inspection. The MIC of ceftazidime at each compound concentration was defined as the lowest concentration of ceftazidime that prevented bacterial growth as read by visual inspection.
A general note: In broth dilution the organism is exposed to a series of concentrations in liquid medium.

Experiment [11] has as its system E. cloacae P99 (AmpC). In words: MIC of compounds alone, broth microdilution. Format: cell-based. Particulars: Enterobacter cloacae; strain P99 (E. cloacae); read-out: MIC compounds of the invention alone. On the procedure: as §1, §2
The subject of experiment [12] is P. aeruginosa CIP107051 (TEM-24). Put plainly: MIC of compounds alone, broth microdilution. Type of experiment: cell-based. Particulars: Pseudomonas aeruginosa; strain CIP107051 (P. aeruginosa); read-out: MIC compounds of the invention alone. On the procedure: as §1, §2
Experiment [13] relates to E. coli 190317 (TEM-1, SHV-12, CTX-M-15, OXA-1). Put plainly: MIC of compounds alone, broth microdilution. Type of experiment: cell-based. Particulars: Escherichia coli, read-out: MIC compounds of the invention alone. How it is done:
as §1, §2

In experiment [14] the test system is E. coli RGN238 (OXA-1). Put plainly: MIC of compounds alone, broth microdilution. Particulars: Escherichia coli; strain RGN238 (E. coli); read-out: MIC compounds of the invention alone. Format: cell-based. How it is done:
as §1, §2

Experiment [15] has as its system E. coli 131119 (TEM-1, OXA-48). Put plainly: MIC of compounds alone, broth microdilution. To be noted: Escherichia coli; strain 131119 (E. coli); read-out: MIC compounds of the invention alone. Format: cell-based. On the procedure: as §1, §2
For experiment [16], the system named is K. pneumoniae 6299 (TEM-1, SHV-11, OXA-163). In words: MIC of compounds alone, broth microdilution. To be noted: Klebsiella pneumoniae; strain 6299 (K. pneumoniae); read-out: MIC compounds of the invention alone. Type of experiment: cell-based. On the procedure:
as §1, §2

The target of experiment [17] is T8, CTX-M-15 (Escherichia coli, UniProt Q9EXV5).
T8 construct: made in house; host or cells: E. coli
Put plainly: β-lactamase inhibitory activity, determination of IC50 (nitrocefin hydrolysis). Type of experiment: biochemical. Particulars: class (A); nitrocefin 200 μM, 30 min pre-incubation; read-out: IC50 β-lactamase CTX-M-15.

Among the data in patent publication US10183943B2, “Heterocyclic compounds and their use in preventing or treating bacterial infections” (MUTABILIS, priority 2015, dated 2019) are IC50 and MIC values, retold here.

T7 sequence (P13661 26-276): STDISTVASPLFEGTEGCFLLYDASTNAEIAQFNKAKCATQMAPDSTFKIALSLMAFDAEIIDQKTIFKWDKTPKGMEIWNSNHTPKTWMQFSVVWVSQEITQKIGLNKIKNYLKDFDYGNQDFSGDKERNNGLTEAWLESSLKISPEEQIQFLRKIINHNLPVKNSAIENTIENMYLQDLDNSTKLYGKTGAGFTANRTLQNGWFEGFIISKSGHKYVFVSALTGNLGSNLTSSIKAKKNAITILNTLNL
T4 sequence (Q9F663 25-293 limits assumed): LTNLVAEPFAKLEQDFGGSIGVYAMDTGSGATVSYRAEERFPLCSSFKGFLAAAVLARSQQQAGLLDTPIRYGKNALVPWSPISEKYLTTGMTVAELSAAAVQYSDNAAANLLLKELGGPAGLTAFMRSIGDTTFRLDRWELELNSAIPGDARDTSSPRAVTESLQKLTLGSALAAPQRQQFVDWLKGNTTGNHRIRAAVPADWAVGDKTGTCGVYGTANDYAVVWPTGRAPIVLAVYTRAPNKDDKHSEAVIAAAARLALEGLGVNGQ
T6 sequence (Q6XEC0 23-265 limits assumed): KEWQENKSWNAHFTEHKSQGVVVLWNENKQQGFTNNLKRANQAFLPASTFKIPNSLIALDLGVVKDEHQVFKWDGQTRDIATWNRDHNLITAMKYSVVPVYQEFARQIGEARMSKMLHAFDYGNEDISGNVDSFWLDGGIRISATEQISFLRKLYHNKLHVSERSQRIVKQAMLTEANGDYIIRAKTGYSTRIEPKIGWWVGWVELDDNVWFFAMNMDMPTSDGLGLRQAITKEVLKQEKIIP
T8 sequence (Q9EXV5 entry or part of it): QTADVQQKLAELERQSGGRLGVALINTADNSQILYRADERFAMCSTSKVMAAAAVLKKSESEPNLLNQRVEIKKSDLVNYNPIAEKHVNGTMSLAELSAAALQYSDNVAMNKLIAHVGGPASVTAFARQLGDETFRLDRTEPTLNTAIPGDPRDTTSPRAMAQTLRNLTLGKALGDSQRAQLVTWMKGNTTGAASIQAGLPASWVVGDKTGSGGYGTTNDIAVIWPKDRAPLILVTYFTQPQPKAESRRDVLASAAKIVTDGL
Chain of AmpC P. aeruginosa (P24735 27-397): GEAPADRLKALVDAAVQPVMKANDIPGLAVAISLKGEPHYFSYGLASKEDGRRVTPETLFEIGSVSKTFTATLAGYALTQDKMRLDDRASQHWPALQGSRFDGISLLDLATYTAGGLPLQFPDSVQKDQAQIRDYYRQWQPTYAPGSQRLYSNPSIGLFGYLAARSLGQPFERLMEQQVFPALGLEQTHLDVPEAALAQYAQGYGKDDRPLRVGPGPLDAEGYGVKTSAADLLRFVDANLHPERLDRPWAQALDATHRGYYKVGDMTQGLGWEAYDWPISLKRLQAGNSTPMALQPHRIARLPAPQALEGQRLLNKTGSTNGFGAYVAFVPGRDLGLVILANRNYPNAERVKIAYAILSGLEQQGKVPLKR
T2 sequence (P0AD64 22-286): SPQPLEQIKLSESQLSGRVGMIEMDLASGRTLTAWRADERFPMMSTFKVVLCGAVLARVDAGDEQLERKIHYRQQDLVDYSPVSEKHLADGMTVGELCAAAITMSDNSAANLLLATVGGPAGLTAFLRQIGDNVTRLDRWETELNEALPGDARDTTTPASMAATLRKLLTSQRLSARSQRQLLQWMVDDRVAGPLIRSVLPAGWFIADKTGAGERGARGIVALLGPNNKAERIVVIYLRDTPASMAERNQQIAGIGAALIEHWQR
T1 sequence (P62593 24-286 limits assumed): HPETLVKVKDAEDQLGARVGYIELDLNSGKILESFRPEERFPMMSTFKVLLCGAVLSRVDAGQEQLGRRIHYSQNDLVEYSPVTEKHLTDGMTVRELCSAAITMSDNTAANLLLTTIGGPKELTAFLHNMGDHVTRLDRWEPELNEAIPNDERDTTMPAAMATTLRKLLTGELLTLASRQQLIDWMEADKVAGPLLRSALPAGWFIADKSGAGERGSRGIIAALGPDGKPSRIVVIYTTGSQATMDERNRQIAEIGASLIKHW
Chain of AmpC (P99) (P05364 21-381): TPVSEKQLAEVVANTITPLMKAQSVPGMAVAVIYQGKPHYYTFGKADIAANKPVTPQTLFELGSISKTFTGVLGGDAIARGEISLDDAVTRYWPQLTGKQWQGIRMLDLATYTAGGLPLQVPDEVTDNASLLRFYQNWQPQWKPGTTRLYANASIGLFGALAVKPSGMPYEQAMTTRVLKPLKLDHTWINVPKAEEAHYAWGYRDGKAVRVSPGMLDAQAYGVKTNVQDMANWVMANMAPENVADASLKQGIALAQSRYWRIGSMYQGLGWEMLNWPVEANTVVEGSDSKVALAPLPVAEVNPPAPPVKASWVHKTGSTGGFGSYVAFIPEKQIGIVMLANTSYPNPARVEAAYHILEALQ
T3 sequence (Q06778 21-266): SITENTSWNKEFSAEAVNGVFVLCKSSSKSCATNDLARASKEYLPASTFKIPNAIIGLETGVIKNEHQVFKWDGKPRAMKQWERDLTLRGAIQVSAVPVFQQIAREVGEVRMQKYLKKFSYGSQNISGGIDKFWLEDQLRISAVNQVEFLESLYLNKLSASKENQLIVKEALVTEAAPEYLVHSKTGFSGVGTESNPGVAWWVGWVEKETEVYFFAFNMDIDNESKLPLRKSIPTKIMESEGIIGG
T5 sequence (Q51574 22-275): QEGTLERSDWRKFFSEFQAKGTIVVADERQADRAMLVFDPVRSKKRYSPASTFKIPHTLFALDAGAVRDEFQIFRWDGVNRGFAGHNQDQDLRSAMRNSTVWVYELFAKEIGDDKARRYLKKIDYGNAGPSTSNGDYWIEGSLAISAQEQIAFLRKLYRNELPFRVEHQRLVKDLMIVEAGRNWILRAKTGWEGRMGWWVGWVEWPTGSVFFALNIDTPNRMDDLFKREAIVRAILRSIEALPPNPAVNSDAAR

As a reminder, the IC50 is the concentration that inhibits the measured activity by half. What is called MIC is the least concentration at which growth counts as inhibited. With `Cn1cnc(C2=CCN3CC2N(OS(=O)(=O)[O-])C3=O)cc1=O.[Na+]` (stereo not shown) [Example 20, Sodium [4-(N-methyl-6-oxo-pyrimidin-4-yl)-7-oxo-1,6-diazabicyclo[3.2.1]oct-3-en-6-yl] sulfate], the IC50 in experiment [1] came to 1 nM; in experiment [2] it was 1900 nM; in experiment [3], 6.7 nM; in experiment [4], 430 nM; in experiment [5] it was 87 nM; in experiment [6] it was 94 nM. Besides, the concentration for half-maximal inhibition (IC50) in [7] stood at 2.2 nM; in experiment [8] it was 1900 nM; in experiment [9], 3200 nM; in experiment [17] it was 3.5 nM. Also, the MIC in experiment [10] was > 32 µg/mL; in experiment [11], 32 µg/mL; in [12], > 32 µg/mL; in experiment [13] it was 8 µg/mL; in experiment [14] it was > 32 µg/mL; in experiment [15], 32 µg/mL. The MIC in experiment [16] is > 32 µg/mL.
Turning to `O=C1N2CC=C(c3cncnc3)C(C2)N1OS(=O)(=O)[O-].[Na+]` (stereo not shown) [Example 10, Sodium [4-(pyrimidin-5-yl)-7-oxo-1,6-diazabicyclo[3.2.1]oct-3-en-6-yl] sulfate], the IC50 in experiment [1] was 7.7 nM; in experiment [2] it was 1100 nM; in experiment [3] it was 21 nM; in experiment [4], 1300 nM; in experiment [5], 130 nM; in experiment [6] it was 140 nM. The IC50 in [7] came out at 6.1 nM; in [8], 200 nM; in experiment [9], 2600 nM; in experiment [17], 8.3 nM. Also, the MIC is > 32 µg/mL in [10]; 16 µg/mL in experiment [11]; > 32 µg/mL in experiment [12]; > 32 µg/mL in [13]; > 32 µg/mL in experiment [14]; 16 µg/mL in experiment [15]. Besides, the MIC in experiment [16] is > 32 µg/mL.
On to `Cn1cc(C2=CCN3CC2N(OS(=O)(=O)[O-])C3=O)ccc1=O.[Na+]` (stereo not shown) [Example 8, Sodium [4-(N-methyl-6-oxo-3-pyridyl)-7-oxo-1,6-diazabicyclo[3.2.1]oct-3-en-6-yl] sulfate], for which the 50% inhibitory concentration (IC50) is 8.2 nM in experiment [1]; 1900 nM in experiment [2]; 19 nM in [3]; 1400 nM in experiment [4]; 170 nM in [5]; 140 nM in experiment [6]. The half-inhibitory concentration (IC50) in experiment [7] worked out at 2.2 nM; in experiment [8], 690 nM; in [9], 3300 nM; in experiment [17], 12 nM. The MIC was > 32 µg/mL in experiment [10]; > 32 µg/mL in [11]; > 32 µg/mL in [12]; 8 µg/mL in experiment [13]; > 32 µg/mL in [14]; > 32 µg/mL in experiment [15]. Besides, in experiment [16], the MIC was > 32 µg/mL.
Turning to `O=C1N2CC(c3nc4ccccc4s3)=CC(C2)N1OS(=O)(=O)[O-].[Na+]` (stereo not shown) [Example 27, Sodium [3-(1,3-benzothiazol-2-yl)-7-oxo-1,6-diazabicyclo[3.2.1]oct-3-en-6-yl] sulfate], the IC50 in [1] turned out to be 0.21 nM; in [2] it was 9.1 nM; in [3], 2.1 nM; in experiment [4] it was 150 nM; in [5] it was 2.7 nM; in [6], 99 nM. The IC50 stood at 6.4 nM in experiment [7], 560 nM in experiment [8], 68 nM in [9] and 1.4 nM in [17]. In addition, the MIC in experiment [10], in experiment [11], in [12], in experiment [13], in [14] and in experiment [15] was > 32 µg/mL throughout. Moreover, the minimum inhibitory concentration (MIC) in experiment [16] is > 32 µg/mL.
For the compound `O=C1N2CC=C(c3cscn3)C(C2)N1OS(=O)(=O)[O-].[Na+]` (stereo not shown) [Example 31, sodium [4-(thiazol-4-yl)-7-oxo-1,6-diazabicyclo[3.2.1]oct-3-en-6-yl] sulfate], the IC50 was determined as 4.9 nM in experiment [1]; 940 nM in [2]; 11 nM in experiment [3]; 990 nM in [4]; 360 nM in experiment [5]; 97 nM in experiment [6]. In addition, the IC50 turned out to be 2.3 nM in [7], 1100 nM in experiment [8], 1500 nM in [9] and 5.5 nM in experiment [17]. Also, the MIC in experiment [10] is > 32 µg/mL; in experiment [11] it was 16 µg/mL; in experiment [12], > 32 µg/mL; in experiment [13] it was 16 µg/mL; in experiment [14], > 32 µg/mL; in [15], 16 µg/mL. Also, the minimal inhibitory concentration (MIC) in [16] was > 32 µg/mL.
Regarding `O=C1N2CC=C(c3cnsc3)C(C2)N1OS(=O)(=O)[O-].[Na+]` (stereo not shown) [Example 29, Sodium [4-(isothiazol-4-yl)-7-oxo-1,6-diazabicyclo[3.2.1]oct-3-en-6-yl] sulfate], the IC50 is 11 nM in experiment [1]; 950 nM in experiment [2]; 20 nM in [3]; 1700 nM in experiment [4]; 150 nM in [5]; 91 nM in [6]. The IC50 in experiment [7] was determined as 2.8 nM; in experiment [8] it was 330 nM; in [9], 1200 nM; in experiment [17] it was 5.8 nM. The MIC in experiment [10], in experiment [11], in experiment [12], in [13], in experiment [14] and in experiment [15] was > 32 µg/mL in each case. The MIC in [16] was > 32 µg/mL.
For `Cn1c(C2=CCN3CC2N(OS(=O)(=O)[O-])C3=O)cccc1=O.[Na+]` (stereo not shown) [Example 18, Sodium [4-(N-methyl-6-oxo-2-pyridyl)-7-oxo-1,6-diazabicyclo[3.2.1]oct-3-en-6-yl] sulfate], the IC50 came out at 2.7 nM in experiment [1]; 230 nM in [2]; 11 nM in experiment [3]; 540 nM in [4]; 1800 nM in experiment [5]; 14 nM in [6]. For the same compound, the half-maximal inhibitory concentration (IC50) in [7] is 20 nM; in [8], 35 nM; in experiment [9], 2700 nM; in [17], 17 nM. Also, the MIC was > 32 µg/mL in experiment [10]; 16 µg/mL in experiment [11]; > 32 µg/mL in experiment [12]; > 32 µg/mL in [13]; > 32 µg/mL in [14]; > 32 µg/mL in experiment [15]. For the same compound, the MIC in experiment [16] was > 32 µg/mL.
On to `O=C1N2CC=C(c3ncco3)C(C2)N1OS(=O)(=O)[O-].[Na+]` (stereo not shown) [Example 4, Sodium [4-(oxazol-2-yl)-7-oxo-1,6-diazabicyclo[3.2.1]oct-3-en-6-yl]sulfate], for which the IC50 in experiment [1] came to 2.9 nM; in [2], 1500 nM; in [3] it was 8.4 nM; in [4] it was 800 nM; in experiment [5], 390 nM; in [6], 46 nM. For the same compound, the IC50 stood at 2.9 nM in [7], 260 nM in experiment [8], 940 nM in experiment [9] and 7.5 nM in experiment [17]. Further, the MIC in experiment [10] was > 32 µg/mL; in experiment [11], 16 µg/mL; in experiment [12], > 32 µg/mL; in experiment [13] it was 8 µg/mL; in experiment [14] it was 32 µg/mL; in experiment [15], 16 µg/mL. Moreover, the MIC in [16] was > 32 µg/mL.
